Where a name gives a salt, the structure may show the parent alone.

One series deals with healthy guineapig skin. The following applies: for activity (induction of necrosis, activation of macrophages): comparison of stereoisomeric 2-phenylglycyl-2-phenylglycine dipeptides; for histolysis / local changes at the administration site: 25 or 50 mg/animal (control 10.7 mg/animal), 7 days. The text has this:
They were then autopsied and the injection sites (skin and muscle) were subjected to pathological-anatomical and pathological-histological evaluation.
This is a chemotactic and activating action on macrophages, which also has a tissue dissolving effect. No systemic toxic symptoms or clinically detectable changes could be observed in any of the experimental animals.

Series [1] can be described thus: acute toxicity, intravenous administration to rodents.
Where [2] appears, read: local administration, guineapig skin.

For `N[C@@H](C(=O)N[C@@H](C(=O)O)c1ccccc1)c1ccccc1`, in the series on healthy guineapig skin, the “activity (induction of necrosis, activation of macrophages)” value (“activity” below) was “outstanding properties to induce necrosis and activate macrophages”. Further, the “general tolerance / systemic toxic symptoms” value with healthy guineapig skin (in vivo) is on record as “no indications of general intolerance”. Further, in the series on healthy guineapig skin (setting [2]), the “macrophage and giant cell infiltration at the administration site” value is “massive infiltration of macrophages and giant cells”; the “histolysis / local changes at the administration site” value (from here on “histolysis / local changes”) was “Local and sharply delineated histolysis”. For the same compound, the LD50 in series [1] (acute experiment, administered intravenously (to rodents)) is on record as 1,000 mg/kg. Besides, the “toxicity, times lower than prior dipeptides of essential aminoacids” value in series [1] (compared with 300 mg/kg intravenously (rodents)) is recorded as 3 times lower.

For the compound `NC(C(=O)NC(C(=O)O)c1ccccc1)c1ccccc1` (mixture of isomers) [reference compound], in the series with healthy guineapig skin, the “activity” value is given as “only a very low activity”. Further, the “histolysis / local changes” value in the series on healthy guineapig skin (setting [2]) is given as “no local changes”.

With `N[C@H](C(=O)N[C@H](C(=O)O)c1ccccc1)c1ccccc1` [L-2-phenylglycyl-L-2-phenylglycine, reference compound], the “activity” value with healthy guineapig skin is listed as “no activity”.

For `NCC(=O)O` [glycine hydrobromide, reference compound], the “histolysis / local changes” value with healthy guineapig skin (setting [2]) is listed as “no local changes”.
